Values after ≈ are worked out from the molar mass of the structure shown. Where two headings read alike, the source gives them in different places.
Key:
L. reuteri ATCC 55730 [1] = assay: MIC on MRS plates containing lincomycin or clindamycin; format: cell-based, Lactobacillus reuteri; conditions: Limosilactobacillus reuteri, ATCC55730, strain ATCC 55730, anaerobic, 37° C., 24 h
Procedure: (§1) The bacteria were grown in MRS broth for 16 h at 37° C. […] After adsorption of the drops, the plates were incubated in anaerobic atmosphere at 37° C. for 24 h. The MIC was defined as the lowest antibiotic concentration for which there was no visible bacterial growth.

L. reuteri DSM 17686 [2] = assay: as above; format: cell-based, Lactobacillus reuteri; conditions: 37° C., 24 h
Procedure: as §1

L. reuteri DSM 17938 [3] = assay: as above; format: cell-based, Lactobacillus reuteri; conditions: strain DSM 17938, anaerobic, 37° C.
Procedure: as §1

L. reuteri DSM 20016 = assay: as above; format: cell-based, Lactobacillus reuteri; conditions: Limosilactobacillus reuteri, DSM20016, strain DSM 20016 (negative control), anaerobic, 37° C., 24 h
Procedure: as §1

1063 = assay: as above; format: cell-based; conditions: strain 1063, anaerobic, 37° C., 24 h
Procedure: as §1

L. reuteri ATCC 55730 [4] = assay: MIC to tetracycline with Etest; format: cell-based, Lactobacillus reuteri; conditions: Limosilactobacillus reuteri, ATCC55730; strain ATCC 55730; MRS agar; read-out: MIC to tetracycline (E-test)
Procedure: (§2) The bacteria were grown in MRS broth for 16 h at 37° C. After dilution to 10^5 cfu ml^−1, 1 μl of each bacterial strain was spotted on MRS plates containing lincomycin or clindamycin (concentrations 0, 0.125, 0.25, 0.5, 1, 2, 4, 8 and 16 μg ml^−1). After adsorption of the drops, the plates were incubated in anaerobic atmosphere at 37° C. for 24 h. The MIC was defined as the lowest antibiotic concentration for which there was no visible bacterial growth. MICs to tetracycline were tested with Etest (AB Biodisk) on bacteria growing on MRS agar (Oxoid) plates according to the instructions from the manufacturer.

L. reuteri DSM 17686 [5] = assay: MIC to tetracycline with Etest; format: cell-based, Lactobacillus reuteri; conditions: strain DSM 17686; MRS agar
Procedure: as §2

L. reuteri DSM 17938 [6] = assay: MIC to tetracycline with Etest; format: cell-based, Lactobacillus reuteri; conditions: strain DSM 17938; MRS agar
Procedure: as §2

[7] = Limosilactobacillus reuteri, DSM17686, strain DSM 17686, anaerobic, read-out: MIC
[8] = Limosilactobacillus reuteri, DSM17938, 24 h, read-out: MIC

Row | SMILES | MIC (L. reuteri ATCC 55730 [1]) | MIC (L. reuteri DSM 17686 [2]; [7]) | MIC (L. reuteri DSM 17938 [3]; [8]) | MIC (L. reuteri DSM 20016) | MIC 1063 | MIC (L. reuteri DSM 17686 [2]; strain DSM 17686, anaerobic) | MIC (L. reuteri DSM 17938 [3]; 24 h) | MIC (L. reuteri ATCC 55730 [4]) | MIC to tetracycline (E-test) (L. reuteri DSM 17686 [5]) | MIC to tetracycline (E-test) (L. reuteri DSM 17938 [6])
1 | CCC[C@@H]1C[C@@H](C(=O)N[C@@H]([C@H]2O[C@H](SC)[C@H](O)[C@@H](O)[C@H]2O)[C@H](C)Cl)N(C)C1 [clindamycin] | < 0.125 µg/mL | < 0.125 µg/mL | < 0.125 µg/mL | < 0.125 µg/mL | > 16 µg/mL | – | – | – | – | –
2 | CCC[C@@H]1C[C@@H](C(=O)N[C@@H]([C@H]2O[C@H](SC)[C@H](O)[C@@H](O)[C@H]2O)[C@@H](C)O)N(C)C1 [lincomycin] | > 16 µg/mL | > 16 µg/mL | 0.25 µg/mL (≈ 0.615 µM) | 0.25 µg/mL (≈ 0.615 µM) | > 16 µg/mL | >16 µg/mL | 0.5 µg/mL (≈ 1.23 µM) | – | – | –
3 | CN(C)[C@@H]1C(O)=C(C(N)=O)C(=O)[C@@]2(O)C(O)=C3C(=O)c4c(O)cccc4[C@@](C)(O)[C@H]3C[C@@H]12 [tetracycline] | – | – | – | – | – | – | – | > 256 µg/mL | 12-16 μml-1 | 12-16 μml-1

— patent US8603460B2, “Method of making a Lactobacillus reuteri with increased acid tolerance” (Brogaia AB, priority 2006, dated 2013)
